Experimental data reported in the supplement of paper PMC10331698.
± gives the standard deviation of the averaged measurements.

Assays:
Assay in all cases: level (log10 ratio to DMSO vehicle control); higher = higher biomarker level / cell amount than vehicle control
Conditions in all cases: in DMSO
Perfluorobutanoic acid = compound: O=C(O)C(F)(F)C(F)(F)C(F)(F)F [Perfluorobutanoic acid]
Experimental: (§1)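 BioMAP Diversity Plus panel of 12 human primary cell co-culture systems (3C, 4H, LPS, SAg, BT, BF4T, BE3C, CASM3C, HDF3CGF, KF3CT, MyoF, Mphg). Compounds were added 1 h before stimulation and left for 24 h (MyoF 48 h; BT 72 h for soluble read-outs or 6 d for IgG). Biomarkers were read by ELISA, cytotoxicity by SRB, PBMC viability and proliferation by Alamar Blue. Each well value was divided by the mean of 8 DMSO control wells on the same plate and log10 transformed; duplicate blinded samples were tested at 4 concentrations.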

[1] = compound: OCCC(F)(F)C(F)(F)C(F)(F)C(F)(F)C(F)(F)C(F)(F)F [6:2 Fluorotelomer alcohol]
Experimental: as §1

[2] = compound: COC(=O)CCC(F)(F)C(F)(F)C(F)(F)C(F)(F)F [Methyl 2H,2H,3H,3H-perfluoroheptanoate]
Experimental: as §1

[3] = compound: FC(F)(F)C(F)(C(F)(F)F)C(F)(F)C(F)(F)CC1CO1 [3-(Perfluoro-3-methylbutyl)-1,2-propenoxide]
Experimental: as §1

[4] = compound: CCN(CCO)S(=O)(=O)C(F)(F)C(F)(F)C(F)(F)C(F)(F)C(F)(F)C(F)(F)C(F)(F)C(F)(F)F [N-Ethyl-N-(2-hydroxyethyl)perfluorooctanesulfonamide]
Experimental: as §1

[5] = compound: FC(F)(F)C(F)(F)C(F)(F)C(F)(F)C(F)(F)C(F)(F)C(F)(F)C(F)(F)CCS [2-(Perfluorooctyl)ethanthiol]
Experimental: as §1

[6] = compound: FC(F)(F)C(F)(F)C(F)(F)C(F)(F)C(F)(F)CCI [1-Iodo-1H,1H,2H,2H-perfluoroheptane]
Experimental: as §1

Perfluorodecanoic acid = compound: O=C(O)C(F)(F)C(F)(F)C(F)(F)C(F)(F)C(F)(F)C(F)(F)C(F)(F)C(F)(F)C(F)(F)F [Perfluorodecanoic acid]
Experimental: as §1

Test System | level (log10) (Perfluorobutanoic acid; 6700 nM) | level (log10) (Perfluorobutanoic acid; 20000 nM) | level (log10) (Perfluorobutanoic acid; 60000 nM) | level (log10) ([1]; 6700 nM) | level (log10) ([1]; 20000 nM) | level (log10) ([2]; 6700 nM) | level (log10) ([2]; 20000 nM) | level (log10) ([2]; 60000 nM) | level (log10) ([3]; 6700 nM) | level (log10) ([3]; 20000 nM) | level (log10) ([4]; 6700 nM) | level (log10) ([4]; 20000 nM) | level (log10) ([5]; 6700 nM) | level (log10) ([5]; 20000 nM) | level (log10) ([6]; 6700 nM) | level (log10) ([6]; 20000 nM) | level (log10) ([6]; 60000 nM) | level (log10) (Perfluorodecanoic acid; 6700 nM) | level (log10) (Perfluorodecanoic acid; 20000 nM)
HDF3CGF:Collagen III | -0.014 ± 0.011 | -0.004 ± 0.016 | 0.0135 ± 0.029 | 0.001 ± 0.038 | -0.014 ± 0.021 | 0.0065 ± 0.016 | 0.0095 ± 0.00071 | 0.0105 ± 0.015 | -0.0295 ± 0.049 | -0.049 ± 0.081 | -0.0465 ± 0.05 | -0.142 ± 0.044 | 0.0005 ± 0.033 | 0.002 ± 0.035 | 0.0695 ± 0.026 | -0.008 ± 0.12 | -0.0595 ± 0.022 | -0.08 ± 0.058 | -0.0755 ± 0.021
MyoF:MMP-1 | -0.027 ± 0.0028 | -0.0135 ± 0.016 | -0.0005 ± 0.04 | 0 ± 0.016 | -0.0035 ± 0.005 | -0.009 ± 0.0071 | -0.019 ± 0.011 | 0.0305 ± 0.12 | -0.007 ± 0.0085 | -0.014 ± 0.0057 | 0.069 ± 0.021 | 0.426 ± 0.052 | -0.0265 ± 0.0092 | -0.0545 ± 0.037 | -0.013 ± 0.038 | -0.0185 ± 0.037 | 0.037 ± 0.011 | -0.0005 ± 0.023 | -0.048 ± 0.0057
lMphg:M-CSF | -0.023 ± 0.024 | -0.0005 ± 0.011 | 0.024 ± 0.031 | -0.0245 ± 0.0021 | -0.0245 ± 0.013 | -0.0325 ± 0.0078 | -0.0275 ± 0.005 | 0.0075 ± 0.022 | -0.0215 ± 0.021 | -0.005 ± 0.02 | -0.001 ± 0.0057 | 0.0105 ± 0.0035 | -0.0075 ± 0.023 | 0.012 ± 0.0028 | -0.043 ± 0.03 | -0.0355 ± 0.012 | -0.007 ± 0.013 | 0.019 ± 0.021 | 0.0105 ± 0.037
HDF3CGF:CD106/VCAM-1 | -0.008 ± 0.0014 | 0.0295 ± 0.026 | -0.0085 ± 0.015 | -0.0175 ± 0.063 | -0.0145 ± 0.042 | -0.0395 ± 0.033 | -0.0135 ± 0.053 | -0.0235 ± 0.066 | -0.0045 ± 0.012 | -0.0245 ± 0.025 | -0.0825 ± 0.046 | -0.173 ± 0.11 | -0.0255 ± 0.0064 | -0.0555 ± 0.059 | -0.0335 ± 0.019 | -0.102 ± 0.033 | -0.429 ± 0.011 | -0.0085 ± 0.026 | -0.623 ± 0.057
MyoF:SRB | 0.0005 ± 0.0035 | -0.001 ± 0.0085 | -0.0125 ± 0.0035 | -0.002 ± 0.0085 | 0 ± 0.0028 | -0.004 ± 0.0028 | 0.0065 ± 0.0035 | 0.0065 ± 0.0064 | 0.008 ± 0.0085 | 0.005 ± 0.0042 | -0.0265 ± 0.00071 | -0.175 ± 0.07 | -0.0005 ± 0.0092 | 0.0025 ± 0.0021 | 0.001 ± 0.0099 | 0.0085 ± 0.015 | 0.0085 ± 0.025 | -0.033 ± 0.0014 | -0.08 ± 0.0099
HDF3CGF:CXCL10/IP-10 | -0.002 ± 0.0057 | 0.0035 ± 0.005 | -0.0025 ± 0.013 | -0.009 ± 0.0099 | -0.0295 ± 0.0092 | -0.011 ± 0.0085 | 0.006 ± 0.016 | -0.026 ± 0.0071 | 0.003 ± 0.021 | -0.034 ± 0.075 | -0.0725 ± 0.05 | -0.206 ± 0.0057 | -0.027 ± 0.025 | -0.0495 ± 0.005 | -0.011 ± 0.0099 | -0.053 ± 0.0071 | -0.11 ± 0.023 | -0.0745 ± 0.015 | -0.427 ± 0.019
KF3CT:TIMP-2 | -0.005 ± 0.014 | -0.009 ± 0.0071 | -0.002 ± 0.0014 | 0.0005 ± 0.016 | 0.0015 ± 0.015 | -0.004 ± 0.017 | -0.012 ± 0.011 | -0.0125 ± 0.043 | -0.003 ± 0.0042 | 0.0015 ± 0.042 | 0.0855 ± 0.037 | 0.04 ± 0.0028 | -0.025 ± 0.02 | -0.021 ± 0.02 | -0.012 ± 0.035 | -0.03 ± 0.028 | -0.0245 ± 0.03 | 0.003 ± 0.03 | -0.051 ± 0.034
BE3C:uPA | -0.0065 ± 0.026 | -0.007 ± 0.011 | -0.015 ± 0.014 | -0.004 | -0.012 ± 0.0028 | -0.013 ± 0.042 | -0.0155 ± 0.018 | -0.0155 ± 0.012 | 0.0005 ± 0.018 | 0.004 ± 0.021 | -0.0025 ± 0.022 | -0.018 ± 0.031 | 0.0045 ± 0.00071 | -0.0085 ± 0.016 | 0.013 ± 0.011 | -0.0005 ± 0.019 | -0.0025 ± 0.033 | -0.0025 ± 0.011 | -0.38 ± 0.0099
KF3CT:IL-1alpha | -0.0085 ± 0.012 | 0.006 ± 0.062 | 0.019 ± 0.058 | 0.003 ± 0.041 | -0.0085 ± 0.011 | -0.0295 ± 0.019 | -0.019 ± 0.018 | -0.0095 ± 0.029 | -0.0105 ± 0.013 | -0.0065 ± 0.015 | 0.006 ± 0.028 | -0.111 | -0.0065 ± 0.026 | -0.009 ± 0.0042 | 0.01 ± 0.016 | 0.009 ± 0.0057 | -0.0295 ± 0.016 | -0.0535 ± 0.0035 | -0.068 ± 0.0042
CASM3C:SRB | 0.0005 ± 0.0064 | -0.0055 ± 0.011 | 0.002 ± 0.0042 | 0.0075 ± 0.005 | -0.003 ± 0.0028 | 0.003 ± 0.0042 | -0.003 ± 0.013 | -0.0015 ± 0.0035 | 0.004 ± 0.0042 | -0.001 ± 0.014 | -0.0265 ± 0.0078 | -0.097 ± 0.014 | 0.002 ± 0.0085 | 0.0095 ± 0.0064 | 0.0035 ± 0.0021 | -0.0075 ± 0.0078 | -0.024 ± 0.0028 | 0.0055 ± 0.0064 | 0.0055 ± 0.0064
BE3C:SRB | -0.009 ± 0.011 | 0 ± 0.0042 | -0.0005 ± 0.011 | -0.0025 ± 0.0021 | -0.0045 ± 0.0021 | -0.004 ± 0.0028 | -0.0015 ± 0.0021 | 0.002 | -0.0005 ± 0.00071 | 0.0015 ± 0.0021 | -0.0175 ± 0.011 | -0.04 ± 0.0071 | 0.0055 ± 0.0092 | 0.0095 ± 0.005 | -0.003 ± 0.0057 | -0.0105 ± 0.0021 | -0.0085 ± 0.012 | -0.0245 ± 0.005 | -0.664 ± 0.021
KF3CT:CXCL8/IL-8 | 0.012 ± 0.013 | -0.009 ± 0.0085 | 0.0045 ± 0.013 | 0 ± 0.0057 | -0.0165 ± 0.005 | -0.0125 ± 0.019 | -0.007 ± 0.013 | 0.0175 ± 0.044 | -0.0155 ± 0.0078 | 0.0035 ± 0.013 | -0.0975 ± 0.012 | -0.0935 ± 0.0064 | -0.026 ± 0.034 | -0.028 ± 0.037 | 0.007 ± 0.035 | 0.028 ± 0.02 | 0.06 ± 0.011 | -0.0225 ± 0.011 | -0.0035 ± 0.018
CASM3C:CD142/Tissue Factor | -0.002 | 0.007 ± 0.0099 | -0.0505 ± 0.00071 | 0.004 ± 0.014 | 0.0075 ± 0.0064 | -0.021 ± 0.027 | 0.001 ± 0.013 | 0.015 ± 0.017 | -0.038 ± 0.047 | -0.033 ± 0.014 | -0.0325 ± 0.012 | 0.0145 ± 0.022 | -0.0015 ± 0.13 | -0.0415 ± 0.07 | 0.001 ± 0.0085 | -0.0065 ± 0.005 | -0.0295 ± 0.028 | 0.008 ± 0.0042 | -0.0055 ± 0.012
MyoF:PAI-I | -0.008 ± 0.0014 | -0.0055 ± 0.018 | -0.0105 ± 0.013 | 0.002 ± 0.0028 | 0.007 ± 0.0042 | -0.003 | 0.0055 ± 0.0078 | 0.003 ± 0.014 | -0.0015 ± 0.013 | -0.0035 ± 0.015 | -0.0065 ± 0.0064 | -0.0085 ± 0.018 | -0.001 ± 0.0042 | -0.0005 ± 0.012 | -0.0005 ± 0.00071 | 0.0005 ± 0.00071 | -0.002 ± 0.0042 | 0.0035 ± 0.012 | 0.0205 ± 0.025
BE3C:Keratin 8/18 | -0.005 ± 0.017 | 0.003 ± 0.0071 | -0.0195 ± 0.016 | -0.0095 ± 0.0064 | -0.0115 ± 0.00071 | -0.0225 ± 0.005 | 0.0015 ± 0.015 | -0.0165 ± 0.018 | 0.0005 ± 0.03 | 0.001 ± 0.03 | 0 ± 0.014 | -0.007 ± 0.014 | -0.0025 ± 0.0021 | -0.009 ± 0.0014 | -0.019 ± 0.02 | -0.009 ± 0.034 | -0.02 ± 0.0071 | 0.0035 ± 0.029 | -0.337 ± 0.0035
